Source: ChEMBL document CHEMBL4033665, “Synthesis and applications of benzohydroxamic acid-based histone deacetylase inhibitors” (Eur J Med Chem, 2017)

Columns and labels:
[1] = target: Histone deacetylase 4 (Homo sapiens, UniProt P56524); experiment: Inhibition of HDAC4 (unknown origin)
[2] = target: Histone deacetylase 2 (Homo sapiens, UniProt Q92769); experiment: Inhibition of HDAC2 (unknown origin)
[3] = target: Histone deacetylase 5 (Homo sapiens, UniProt Q9UQL6); experiment: Inhibition of HDAC5 (unknown origin)
Histone deacetylase 5, sequence (Q9UQL6 whole entry): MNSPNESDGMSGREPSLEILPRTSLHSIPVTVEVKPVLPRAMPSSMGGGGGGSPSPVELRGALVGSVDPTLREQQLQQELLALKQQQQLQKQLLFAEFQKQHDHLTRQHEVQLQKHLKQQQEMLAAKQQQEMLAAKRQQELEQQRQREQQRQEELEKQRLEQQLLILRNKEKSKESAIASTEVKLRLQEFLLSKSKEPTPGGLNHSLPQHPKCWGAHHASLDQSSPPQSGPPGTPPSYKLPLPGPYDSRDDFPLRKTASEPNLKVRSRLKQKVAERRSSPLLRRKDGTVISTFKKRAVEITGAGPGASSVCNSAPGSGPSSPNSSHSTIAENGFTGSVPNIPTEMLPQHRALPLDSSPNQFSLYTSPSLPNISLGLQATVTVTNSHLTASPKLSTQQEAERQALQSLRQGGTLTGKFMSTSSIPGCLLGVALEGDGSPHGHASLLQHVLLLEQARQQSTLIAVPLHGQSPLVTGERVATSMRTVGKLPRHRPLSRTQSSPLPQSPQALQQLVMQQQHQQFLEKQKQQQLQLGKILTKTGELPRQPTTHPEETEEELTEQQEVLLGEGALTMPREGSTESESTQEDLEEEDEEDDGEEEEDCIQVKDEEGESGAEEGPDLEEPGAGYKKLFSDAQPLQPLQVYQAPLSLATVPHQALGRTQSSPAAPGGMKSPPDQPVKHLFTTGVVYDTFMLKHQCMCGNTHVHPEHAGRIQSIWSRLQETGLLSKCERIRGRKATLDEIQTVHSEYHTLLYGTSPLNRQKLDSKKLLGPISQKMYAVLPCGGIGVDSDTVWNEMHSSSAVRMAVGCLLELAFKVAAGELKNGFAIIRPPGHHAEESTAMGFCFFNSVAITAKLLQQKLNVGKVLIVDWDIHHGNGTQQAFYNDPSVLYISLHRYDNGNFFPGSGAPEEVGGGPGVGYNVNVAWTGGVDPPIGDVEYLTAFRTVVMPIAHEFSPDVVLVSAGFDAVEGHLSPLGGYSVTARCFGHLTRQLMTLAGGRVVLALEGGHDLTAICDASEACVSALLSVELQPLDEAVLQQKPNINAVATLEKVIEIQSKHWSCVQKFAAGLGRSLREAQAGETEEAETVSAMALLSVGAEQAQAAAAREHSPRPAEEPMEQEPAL

[4] = target: Histone deacetylase 3 (Homo sapiens, UniProt O15379); experiment: Inhibition of HDAC3 (unknown origin)
Histone deacetylase 3, sequence (O15379 whole entry): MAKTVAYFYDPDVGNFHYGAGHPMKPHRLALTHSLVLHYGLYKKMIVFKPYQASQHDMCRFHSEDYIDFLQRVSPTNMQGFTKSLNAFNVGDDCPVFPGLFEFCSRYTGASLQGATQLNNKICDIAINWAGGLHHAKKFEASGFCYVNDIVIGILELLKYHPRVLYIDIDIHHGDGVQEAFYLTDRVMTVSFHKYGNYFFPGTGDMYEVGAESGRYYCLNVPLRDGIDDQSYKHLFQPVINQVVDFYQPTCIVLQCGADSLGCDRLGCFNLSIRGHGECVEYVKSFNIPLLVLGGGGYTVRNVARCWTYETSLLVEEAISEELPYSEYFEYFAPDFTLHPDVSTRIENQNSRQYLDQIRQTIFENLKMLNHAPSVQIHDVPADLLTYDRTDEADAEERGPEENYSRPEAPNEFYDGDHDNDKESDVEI

[5] = target: T1, Polyamine deacetylase HDAC10 (Homo sapiens, UniProt Q969S8); experiment: Inhibition of HDAC10 (unknown origin)
T1 sequence (Q969S8 whole entry): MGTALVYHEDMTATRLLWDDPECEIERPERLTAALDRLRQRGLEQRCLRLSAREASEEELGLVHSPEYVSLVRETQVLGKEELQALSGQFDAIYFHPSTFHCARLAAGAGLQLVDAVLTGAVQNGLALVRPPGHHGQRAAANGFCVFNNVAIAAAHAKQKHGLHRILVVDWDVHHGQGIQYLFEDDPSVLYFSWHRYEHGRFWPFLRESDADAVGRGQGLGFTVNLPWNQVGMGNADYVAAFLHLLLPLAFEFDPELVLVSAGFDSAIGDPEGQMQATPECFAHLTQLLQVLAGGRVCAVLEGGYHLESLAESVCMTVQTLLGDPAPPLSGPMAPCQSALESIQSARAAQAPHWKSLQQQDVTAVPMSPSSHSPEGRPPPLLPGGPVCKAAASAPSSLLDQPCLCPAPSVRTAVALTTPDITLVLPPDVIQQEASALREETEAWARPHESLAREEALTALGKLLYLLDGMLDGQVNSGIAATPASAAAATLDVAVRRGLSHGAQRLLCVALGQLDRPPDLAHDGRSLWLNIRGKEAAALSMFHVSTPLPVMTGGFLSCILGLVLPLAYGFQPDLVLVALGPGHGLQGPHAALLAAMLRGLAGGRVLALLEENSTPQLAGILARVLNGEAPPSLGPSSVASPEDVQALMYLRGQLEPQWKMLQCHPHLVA

[6] = target: T2, Histone deacetylase 8 (Homo sapiens, UniProt Q9BY41); experiment: Inhibition of HDAC8 (unknown origin)
T2 sequence (Q9BY41 whole entry): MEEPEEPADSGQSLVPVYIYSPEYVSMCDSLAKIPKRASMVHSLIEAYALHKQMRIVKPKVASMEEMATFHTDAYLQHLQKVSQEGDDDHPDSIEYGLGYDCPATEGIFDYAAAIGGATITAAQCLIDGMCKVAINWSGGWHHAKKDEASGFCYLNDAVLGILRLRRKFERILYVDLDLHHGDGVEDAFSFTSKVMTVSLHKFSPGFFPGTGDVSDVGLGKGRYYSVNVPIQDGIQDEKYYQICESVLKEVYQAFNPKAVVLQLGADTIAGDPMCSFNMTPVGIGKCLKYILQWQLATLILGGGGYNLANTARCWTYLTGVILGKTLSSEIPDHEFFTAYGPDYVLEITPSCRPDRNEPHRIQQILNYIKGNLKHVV

[7] = target: T3, Histone deacetylase 11 (Homo sapiens, UniProt Q96DB2); experiment: Inhibition of HDAC11 (unknown origin)
T3 sequence (Q96DB2 whole entry): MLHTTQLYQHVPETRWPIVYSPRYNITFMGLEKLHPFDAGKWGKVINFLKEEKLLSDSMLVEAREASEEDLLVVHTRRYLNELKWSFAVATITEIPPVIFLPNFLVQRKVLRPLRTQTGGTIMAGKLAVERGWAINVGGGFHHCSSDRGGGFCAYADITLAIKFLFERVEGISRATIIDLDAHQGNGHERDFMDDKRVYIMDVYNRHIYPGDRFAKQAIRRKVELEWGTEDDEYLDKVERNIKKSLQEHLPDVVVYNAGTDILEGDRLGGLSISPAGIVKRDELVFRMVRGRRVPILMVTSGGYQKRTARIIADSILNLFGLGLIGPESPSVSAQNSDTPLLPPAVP

[8] = target: T4, Protein deacetylase HDAC6 (Homo sapiens, UniProt Q9UBN7); experiment: Inhibition of HDAC6 (unknown origin)
T4 sequence (Q9UBN7 whole entry): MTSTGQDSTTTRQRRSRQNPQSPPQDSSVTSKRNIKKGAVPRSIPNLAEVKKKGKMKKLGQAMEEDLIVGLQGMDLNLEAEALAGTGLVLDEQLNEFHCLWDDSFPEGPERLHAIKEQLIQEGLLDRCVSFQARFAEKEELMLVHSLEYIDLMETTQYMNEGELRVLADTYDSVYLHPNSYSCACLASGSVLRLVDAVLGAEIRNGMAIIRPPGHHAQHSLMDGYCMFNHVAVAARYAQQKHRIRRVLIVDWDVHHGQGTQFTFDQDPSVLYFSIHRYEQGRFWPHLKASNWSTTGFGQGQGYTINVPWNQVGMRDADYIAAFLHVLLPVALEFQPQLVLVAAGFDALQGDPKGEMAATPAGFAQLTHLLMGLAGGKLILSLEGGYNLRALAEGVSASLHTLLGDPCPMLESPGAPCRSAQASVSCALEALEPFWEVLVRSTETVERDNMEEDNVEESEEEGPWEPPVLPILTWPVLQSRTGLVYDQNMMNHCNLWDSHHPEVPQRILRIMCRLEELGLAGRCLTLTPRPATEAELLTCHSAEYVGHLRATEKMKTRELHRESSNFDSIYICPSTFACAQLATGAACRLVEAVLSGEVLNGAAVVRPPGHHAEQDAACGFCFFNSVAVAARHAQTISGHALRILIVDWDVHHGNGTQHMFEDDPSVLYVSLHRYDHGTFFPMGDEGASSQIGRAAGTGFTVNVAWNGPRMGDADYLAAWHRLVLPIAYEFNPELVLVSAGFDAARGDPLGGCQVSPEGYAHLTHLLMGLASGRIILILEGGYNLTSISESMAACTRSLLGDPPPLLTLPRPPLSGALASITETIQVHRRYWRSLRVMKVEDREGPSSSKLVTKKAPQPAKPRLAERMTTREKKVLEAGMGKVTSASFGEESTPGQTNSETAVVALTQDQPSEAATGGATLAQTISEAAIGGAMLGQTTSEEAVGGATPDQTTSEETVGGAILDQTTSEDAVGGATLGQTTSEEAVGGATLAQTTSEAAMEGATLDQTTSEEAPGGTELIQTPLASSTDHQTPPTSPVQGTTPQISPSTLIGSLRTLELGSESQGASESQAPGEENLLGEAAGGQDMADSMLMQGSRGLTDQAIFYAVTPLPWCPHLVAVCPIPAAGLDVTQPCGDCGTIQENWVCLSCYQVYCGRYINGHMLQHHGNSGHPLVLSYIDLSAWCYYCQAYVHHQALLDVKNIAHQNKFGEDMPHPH

[9] = target: T5, Histone deacetylase 1 (Homo sapiens, UniProt Q13547); experiment: Inhibition of HDAC1 (unknown origin)
T5 sequence (Q13547 whole entry): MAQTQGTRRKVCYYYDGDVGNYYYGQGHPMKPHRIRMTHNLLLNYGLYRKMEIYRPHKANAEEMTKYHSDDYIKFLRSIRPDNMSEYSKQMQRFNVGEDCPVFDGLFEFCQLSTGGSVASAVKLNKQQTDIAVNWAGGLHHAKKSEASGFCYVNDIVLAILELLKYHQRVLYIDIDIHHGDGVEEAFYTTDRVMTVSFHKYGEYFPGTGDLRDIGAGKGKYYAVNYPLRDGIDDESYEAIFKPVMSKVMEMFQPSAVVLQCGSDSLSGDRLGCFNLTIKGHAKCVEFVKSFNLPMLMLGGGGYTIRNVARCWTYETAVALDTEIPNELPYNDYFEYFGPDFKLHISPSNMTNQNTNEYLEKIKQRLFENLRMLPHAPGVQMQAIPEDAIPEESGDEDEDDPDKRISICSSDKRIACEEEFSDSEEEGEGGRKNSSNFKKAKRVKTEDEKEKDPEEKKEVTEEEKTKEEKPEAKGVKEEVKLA

[10] = target: Histone deacetylase 9 (Homo sapiens, UniProt Q9UKV0); experiment: Inhibition of HDAC9 (unknown origin)
Histone deacetylase 9, sequence (Q9UKV0 whole entry): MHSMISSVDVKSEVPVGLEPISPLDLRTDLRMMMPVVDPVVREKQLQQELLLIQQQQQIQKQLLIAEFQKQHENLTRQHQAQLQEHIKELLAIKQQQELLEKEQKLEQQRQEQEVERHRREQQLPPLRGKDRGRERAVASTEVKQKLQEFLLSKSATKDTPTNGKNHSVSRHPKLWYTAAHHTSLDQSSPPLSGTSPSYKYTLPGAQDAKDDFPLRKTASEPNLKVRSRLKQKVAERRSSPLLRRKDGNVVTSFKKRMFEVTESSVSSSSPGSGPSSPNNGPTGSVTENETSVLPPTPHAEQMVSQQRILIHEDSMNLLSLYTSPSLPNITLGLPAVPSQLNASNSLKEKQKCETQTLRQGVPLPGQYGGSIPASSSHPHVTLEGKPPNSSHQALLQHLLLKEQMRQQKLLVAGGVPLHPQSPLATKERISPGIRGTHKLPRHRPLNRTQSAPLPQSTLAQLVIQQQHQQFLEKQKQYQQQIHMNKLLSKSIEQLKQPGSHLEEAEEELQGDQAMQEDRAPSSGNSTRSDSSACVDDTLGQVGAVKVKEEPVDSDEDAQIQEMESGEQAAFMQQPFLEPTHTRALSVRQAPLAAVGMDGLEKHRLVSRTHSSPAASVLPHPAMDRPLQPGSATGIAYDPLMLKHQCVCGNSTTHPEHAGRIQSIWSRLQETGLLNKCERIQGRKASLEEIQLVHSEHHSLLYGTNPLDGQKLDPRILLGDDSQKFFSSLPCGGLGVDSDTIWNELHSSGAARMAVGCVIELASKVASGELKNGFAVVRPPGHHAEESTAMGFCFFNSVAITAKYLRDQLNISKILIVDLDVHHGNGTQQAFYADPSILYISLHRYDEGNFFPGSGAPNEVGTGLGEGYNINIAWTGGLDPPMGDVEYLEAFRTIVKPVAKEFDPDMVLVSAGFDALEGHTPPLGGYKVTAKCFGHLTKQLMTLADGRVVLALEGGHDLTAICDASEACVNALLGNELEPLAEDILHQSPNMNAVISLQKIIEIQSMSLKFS

[11] = target: T6, Histone deacetylase 7 (Homo sapiens, UniProt Q8WUI4); experiment: Inhibition of HDAC7 (unknown origin)
T6 sequence (Q8WUI4 whole entry): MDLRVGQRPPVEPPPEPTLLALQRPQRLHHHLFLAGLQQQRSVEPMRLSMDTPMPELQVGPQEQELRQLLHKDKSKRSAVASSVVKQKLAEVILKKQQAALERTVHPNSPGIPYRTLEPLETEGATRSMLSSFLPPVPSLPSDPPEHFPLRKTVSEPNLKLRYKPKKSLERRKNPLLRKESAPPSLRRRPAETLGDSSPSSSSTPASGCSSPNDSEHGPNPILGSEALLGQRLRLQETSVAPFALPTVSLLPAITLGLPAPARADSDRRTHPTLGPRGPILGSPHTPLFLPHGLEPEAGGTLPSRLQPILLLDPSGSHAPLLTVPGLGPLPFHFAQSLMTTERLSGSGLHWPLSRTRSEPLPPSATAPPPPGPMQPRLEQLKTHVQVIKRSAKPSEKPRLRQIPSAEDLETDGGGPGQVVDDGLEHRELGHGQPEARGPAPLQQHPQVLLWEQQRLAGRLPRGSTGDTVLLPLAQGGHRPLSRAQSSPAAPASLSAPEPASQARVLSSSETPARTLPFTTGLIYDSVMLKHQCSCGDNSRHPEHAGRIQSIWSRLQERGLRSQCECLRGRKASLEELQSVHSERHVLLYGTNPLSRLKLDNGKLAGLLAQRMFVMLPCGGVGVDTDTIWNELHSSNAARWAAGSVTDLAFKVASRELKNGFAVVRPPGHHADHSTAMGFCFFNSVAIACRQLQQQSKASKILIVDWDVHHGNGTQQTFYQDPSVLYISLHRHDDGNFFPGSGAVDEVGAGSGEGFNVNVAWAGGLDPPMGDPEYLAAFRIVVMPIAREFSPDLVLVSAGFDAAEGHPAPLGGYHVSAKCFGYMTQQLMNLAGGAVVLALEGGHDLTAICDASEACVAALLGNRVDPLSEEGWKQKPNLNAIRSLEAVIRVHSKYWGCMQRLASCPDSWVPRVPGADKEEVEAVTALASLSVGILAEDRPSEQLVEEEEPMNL

[12] = target: Histone deacetylase HD1B (Zea mays, UniProt Q9ZTP8); experiment: Inhibition of maize HD1B
Histone deacetylase HD1B, sequence (Q9ZTP8 whole entry): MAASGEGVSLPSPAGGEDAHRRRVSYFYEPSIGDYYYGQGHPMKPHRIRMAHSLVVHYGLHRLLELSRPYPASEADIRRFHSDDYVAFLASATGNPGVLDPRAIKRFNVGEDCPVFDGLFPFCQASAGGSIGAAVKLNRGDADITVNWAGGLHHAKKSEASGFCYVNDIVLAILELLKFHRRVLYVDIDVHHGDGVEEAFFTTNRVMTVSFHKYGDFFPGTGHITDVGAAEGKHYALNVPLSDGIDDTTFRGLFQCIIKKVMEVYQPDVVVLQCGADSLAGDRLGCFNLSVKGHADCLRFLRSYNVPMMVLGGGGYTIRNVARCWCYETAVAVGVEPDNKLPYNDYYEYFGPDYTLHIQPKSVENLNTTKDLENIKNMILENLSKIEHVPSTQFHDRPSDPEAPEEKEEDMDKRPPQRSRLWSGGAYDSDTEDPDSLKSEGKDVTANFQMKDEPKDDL

[13] = Inhibition of maize HD2; parameters: species or system Zea mays
[14] = Inhibition of maize HD1A; parameters: species or system Zea mays
[15] = target: T4, Protein deacetylase HDAC6; experiment: Inhibition of recombinant N-terminal GST-tagged full length human HDAC6 expressed in baculovirus expression system in Sf9 insect cells using AMC-labeled RHKKAc as substrate by fluorescence method
[16] = target: T5, Histone deacetylase 1; experiment: Inhibition of C-terminal His-tag and C-terminal FLAG-tagged full length human HDAC1 expressed in baculovirus expression system using AMC-labeled RHKKAc as substrate by fluorescence method
[17] = Inhibition of HDAC activity in human DU-145 cell nuclear extract

Histone deacetylase 4, sequence (P56524 whole entry): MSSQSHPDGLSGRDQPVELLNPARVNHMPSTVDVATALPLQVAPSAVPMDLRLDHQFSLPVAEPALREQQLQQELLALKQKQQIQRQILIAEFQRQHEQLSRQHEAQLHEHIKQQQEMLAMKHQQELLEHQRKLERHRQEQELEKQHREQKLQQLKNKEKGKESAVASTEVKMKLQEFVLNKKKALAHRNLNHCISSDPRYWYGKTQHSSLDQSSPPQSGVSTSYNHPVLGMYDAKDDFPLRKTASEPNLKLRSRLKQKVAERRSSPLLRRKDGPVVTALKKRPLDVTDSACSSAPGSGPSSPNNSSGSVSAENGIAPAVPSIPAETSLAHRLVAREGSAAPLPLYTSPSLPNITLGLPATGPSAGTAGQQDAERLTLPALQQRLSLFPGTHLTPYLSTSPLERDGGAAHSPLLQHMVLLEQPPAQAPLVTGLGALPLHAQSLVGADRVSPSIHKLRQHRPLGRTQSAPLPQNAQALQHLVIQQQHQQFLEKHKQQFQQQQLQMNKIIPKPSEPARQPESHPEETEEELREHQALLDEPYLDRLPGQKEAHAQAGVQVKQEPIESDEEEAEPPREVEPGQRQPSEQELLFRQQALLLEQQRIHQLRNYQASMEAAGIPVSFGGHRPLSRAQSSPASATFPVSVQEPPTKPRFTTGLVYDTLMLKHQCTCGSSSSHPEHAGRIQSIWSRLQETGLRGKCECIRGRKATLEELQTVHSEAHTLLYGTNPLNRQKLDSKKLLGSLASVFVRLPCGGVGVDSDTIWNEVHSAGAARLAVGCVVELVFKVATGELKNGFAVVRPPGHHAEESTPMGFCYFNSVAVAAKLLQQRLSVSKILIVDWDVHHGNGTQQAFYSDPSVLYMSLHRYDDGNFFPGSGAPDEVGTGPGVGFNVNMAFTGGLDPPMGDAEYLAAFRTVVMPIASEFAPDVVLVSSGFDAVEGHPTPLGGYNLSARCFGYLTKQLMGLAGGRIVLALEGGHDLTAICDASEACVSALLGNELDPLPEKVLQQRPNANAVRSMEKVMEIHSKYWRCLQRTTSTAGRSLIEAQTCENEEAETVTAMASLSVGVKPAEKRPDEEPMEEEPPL
Histone deacetylase 2, sequence (Q92769 whole entry): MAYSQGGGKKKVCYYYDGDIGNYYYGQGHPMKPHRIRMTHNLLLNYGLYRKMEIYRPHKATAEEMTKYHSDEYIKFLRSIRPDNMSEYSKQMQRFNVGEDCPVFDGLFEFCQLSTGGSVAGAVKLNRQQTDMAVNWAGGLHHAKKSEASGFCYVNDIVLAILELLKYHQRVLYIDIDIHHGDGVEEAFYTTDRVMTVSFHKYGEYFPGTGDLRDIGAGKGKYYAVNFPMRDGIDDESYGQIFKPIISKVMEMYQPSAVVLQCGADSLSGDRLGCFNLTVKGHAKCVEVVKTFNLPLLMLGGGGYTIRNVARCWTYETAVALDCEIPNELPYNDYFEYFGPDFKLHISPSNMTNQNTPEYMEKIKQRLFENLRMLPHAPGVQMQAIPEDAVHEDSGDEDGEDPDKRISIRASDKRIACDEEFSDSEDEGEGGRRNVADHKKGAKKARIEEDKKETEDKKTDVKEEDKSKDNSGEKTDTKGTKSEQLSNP

SMILES: Cc1nc2ccccc2n1Cc1ccc(C(=O)NO)cc1F
- IC50 [1]: 500 nM
- IC50 [2]: 20300 nM
- IC50 [3]: 200 nM
- IC50 [4]: 12500 nM
- IC50 [5]: 20400 nM
- IC50 [6]: 200 nM
- IC50 [7]: 12900 nM
- IC50 [8]: 0.8 nM

SMILES: O=C(/C=C/c1cccc(C(=O)NO)c1)NO
- IC50 [4]: 70 nM
- IC50 [9]: 10 nM

SMILES: O=C(NO)c1ccc(Cn2c3c(c4ccccc42)S(=O)(=O)CC3)cc1
- IC50 [1]: 600 nM
- IC50 [2]: > 30000 nM
- IC50 [3]: 400 nM
- IC50 [5]: 13000 nM
- IC50 [9]: 12000 nM
- IC50 [10]: 200 nM
- IC50 [6]: 1900 nM
- IC50 [7]: 17000 nM
- IC50 [8]: 8 nM

SMILES: O=C(NO)c1ccc(NCc2csc3ccc(Br)cc23)cc1
- IC50 [4]: > 10000 nM
- IC50 [9]: > 10000 nM
- IC50 [11]: > 10000 nM

SMILES: CCN(CC)Cc1ccc2cc(COC(=O)Nc3ccc(C(=O)NO)cc3)ccc2c1 [GIVINOSTAT]
- IC50 [12]: 7.5 to 16 nM
- IC50 [13]: 7.5 to 16 nM
- IC50 [14]: 7.5 to 16 nM

SMILES: Cc1noc(C)c1-c1ccnc(N(Cc2ccc(C(=O)NO)cc2)c2cnccn2)c1
- IC50 [15]: ≤ 500 nM
- IC50 [16]: ≥ 10000 nM

SMILES: O=C(CCCc1ccccc1)Nc1ccc(C(=O)NO)cc1
- IC50 [17]: 44 nM
